Experimental data from patent US12595269B2, “Morpholine-like monoamine releasers” (Solvonis Therapeutics Ireland Holdings Limited, priority 2022, dated 2026).
Read-outs that look alike come from different tables or passages of the source.

Assays:
Format in all cases: in vitro ADME
CYP2C9 = biological target: T1, CYP2C9 (Homo sapiens, UniProt P11712); test: CYP450 inhibition, fluorescent probe, recombinant microsomes: CYP2C9
T1 construct: host or cells: recombinant microsomes
Method: (§1) Methods and Procedure: The study was performed in agreement with previously described procedures to assure data integrity and adherence to GLP standards. Briefly, recombinant human CYP450 isoenzymes were used to metabolize pro-fluorescent probe substrates to fluorescent products. IC50 values determined from the effect of test compounds on the metabolism of these probe substrates were then used to determine inhibitory potency against CYP450 isoforms.
(§2) The test system was based on a three-step procedure with a “mix and read” format, where PGP-432,TI reaction and reading were performed at 37° C. […] Fluorescence was measured in kinetic mode (1 read/minutes for 10 minutes), and the fluorescence rate was calculated. […]
(§3) Microsomes were added to the buffer prior to the substrate addition. […] For fluorescence measurement, 10 μL/well of the test compounds were transferred from the compound plate to the assay plate using Biomek FX and the appropriate protocol. […]
(§4) 10 μL/well of the cofactor was then added to the assay plate using the Multidrop before placing the assay plate in the plate reader EnVision to measure fluorescence. […]
(§5) Next, 10 μL/well from the compound plate was added and incubated for 10 minutes at 37° C. on a plate shaker, while a mixture of Vivid Substrate and Vivid NADP+ in Vivid CYP450 Reaction Buffer was prepared. […] Regarding data analysis, the inhibition effect is expressed as a percentage. […]

CYP2D6 = biological target: T2, CYP2D6 (Homo sapiens, UniProt P10635); test: CYP450 inhibition, fluorescent probe, recombinant microsomes: CYP2D6
T2 construct: host or cells: recombinant microsomes
Method: as §1, §2, §3, §4, §5

CYP1A2 = biological target: T3, CYP1A2 (Homo sapiens, UniProt P05177); test: CYP450 inhibition, fluorescent probe, recombinant microsomes: CYP1A2
T3 construct: host or cells: recombinant microsomes
T3 sequence (P05177 1-516): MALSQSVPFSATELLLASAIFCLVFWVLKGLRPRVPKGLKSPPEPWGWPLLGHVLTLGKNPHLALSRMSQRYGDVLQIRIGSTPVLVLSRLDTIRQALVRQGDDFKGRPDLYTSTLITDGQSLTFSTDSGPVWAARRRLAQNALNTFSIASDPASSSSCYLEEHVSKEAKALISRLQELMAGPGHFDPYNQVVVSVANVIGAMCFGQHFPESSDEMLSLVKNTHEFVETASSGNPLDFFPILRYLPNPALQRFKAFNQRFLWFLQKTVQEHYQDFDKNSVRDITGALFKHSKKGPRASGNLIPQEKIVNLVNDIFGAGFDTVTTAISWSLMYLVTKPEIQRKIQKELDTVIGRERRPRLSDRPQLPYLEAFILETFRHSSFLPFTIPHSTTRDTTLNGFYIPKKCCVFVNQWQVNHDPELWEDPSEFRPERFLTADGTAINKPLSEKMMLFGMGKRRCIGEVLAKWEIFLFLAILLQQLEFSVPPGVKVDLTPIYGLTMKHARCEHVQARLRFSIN
Method: as §1, §2, §3, §4, §5

CYP2C19 = biological target: T4, CYP2C19 (Homo sapiens, UniProt P33261); test: CYP450 inhibition, fluorescent probe, recombinant microsomes: CYP2C19
T4 construct: host or cells: recombinant microsomes
Method: as §1, §2, §3, §4, §5

T2 sequence (P10635 whole entry): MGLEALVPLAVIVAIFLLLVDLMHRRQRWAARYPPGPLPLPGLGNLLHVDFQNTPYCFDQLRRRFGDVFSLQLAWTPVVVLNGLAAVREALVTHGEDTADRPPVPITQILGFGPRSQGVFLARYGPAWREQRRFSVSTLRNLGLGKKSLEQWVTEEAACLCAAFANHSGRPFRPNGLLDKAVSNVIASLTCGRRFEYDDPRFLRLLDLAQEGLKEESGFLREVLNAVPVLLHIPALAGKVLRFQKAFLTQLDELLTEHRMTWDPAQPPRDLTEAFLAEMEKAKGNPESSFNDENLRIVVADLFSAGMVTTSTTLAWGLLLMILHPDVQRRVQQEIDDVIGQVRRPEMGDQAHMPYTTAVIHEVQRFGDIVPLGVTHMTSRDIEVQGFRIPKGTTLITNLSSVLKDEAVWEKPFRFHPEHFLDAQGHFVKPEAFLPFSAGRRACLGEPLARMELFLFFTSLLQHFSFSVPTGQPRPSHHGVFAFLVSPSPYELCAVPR
T1 sequence (P11712 whole entry): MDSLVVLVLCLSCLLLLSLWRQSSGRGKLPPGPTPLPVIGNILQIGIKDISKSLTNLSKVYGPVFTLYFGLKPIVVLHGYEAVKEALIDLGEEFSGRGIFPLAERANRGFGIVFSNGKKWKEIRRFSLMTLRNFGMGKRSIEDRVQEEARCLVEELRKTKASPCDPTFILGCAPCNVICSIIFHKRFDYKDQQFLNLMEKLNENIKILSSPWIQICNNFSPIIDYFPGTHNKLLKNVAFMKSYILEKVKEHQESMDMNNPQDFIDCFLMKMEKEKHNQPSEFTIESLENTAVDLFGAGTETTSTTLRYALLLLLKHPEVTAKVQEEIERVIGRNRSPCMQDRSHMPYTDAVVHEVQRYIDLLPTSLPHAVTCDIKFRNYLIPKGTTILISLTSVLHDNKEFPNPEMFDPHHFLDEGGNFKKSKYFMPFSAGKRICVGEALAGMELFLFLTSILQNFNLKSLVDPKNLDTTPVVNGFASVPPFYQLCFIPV
T4 sequence (P33261 whole entry): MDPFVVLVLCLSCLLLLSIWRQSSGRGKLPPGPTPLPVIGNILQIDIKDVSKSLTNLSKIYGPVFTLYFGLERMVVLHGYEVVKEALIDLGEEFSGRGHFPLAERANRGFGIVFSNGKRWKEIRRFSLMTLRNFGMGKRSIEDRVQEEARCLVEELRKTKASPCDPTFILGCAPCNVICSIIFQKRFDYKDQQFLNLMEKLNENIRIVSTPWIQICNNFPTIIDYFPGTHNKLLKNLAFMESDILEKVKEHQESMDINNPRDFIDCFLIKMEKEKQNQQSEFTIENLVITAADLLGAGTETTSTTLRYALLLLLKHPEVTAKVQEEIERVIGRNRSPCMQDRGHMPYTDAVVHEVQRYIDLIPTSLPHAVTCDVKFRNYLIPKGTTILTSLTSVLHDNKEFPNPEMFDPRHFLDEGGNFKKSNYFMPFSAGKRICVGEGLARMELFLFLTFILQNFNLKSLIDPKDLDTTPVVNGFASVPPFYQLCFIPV

| SMILES | IC50 (CYP2C9; recombinant human CYP2C9) | IC50 (CYP2D6; recombinant human CYP2D6, read-out: CYP450 Inhibition (IC50), CYP2D6) | IC50 (CYP1A2; recombinant human CYP1A2) | IC50 (CYP2C19; recombinant human CYP2C19) | IC50 at 10 min (CYP2C9; human, recombinant microsomes expressing CYP2C9) | IC50 (CYP2D6) | IC50 at 10 min (CYP1A2; human, recombinant microsomes expressing CYP1A2) | IC50 at 10 min (CYP2C19; human, recombinant microsomes expressing CYP2C19) |
| --- | --- | --- | --- | --- | --- | --- | --- | --- |
| Clc1ccc(C23CNC(CO2)C3)cc1Cl (centres unmarked) [522A, 1-(3,4-dichlorophenyl)-2-oxa-5-azabicyclo[2.2.1]heptane] | > 50 µM | 2.87 µM | > 50 µM | > 50 µM | – | – | – | – |
| CNC(C)Cc1ccc2c(c1)OCO2 (centres unmarked) [MDMA, reference compound] | – | – | – | – | 50 µM | 1.6 µM | 50 µM | 50 µM |
